Measured values published in patent publication US10966995B2, “Use of secoisolariciresinol diglucosides (SDGS) and related compounds for protection against radiation and chemical damage” (THE TRUSTEES OF THE UNIVERSITY OF PENNSYLVANIA, priority 2014, dated 2021).

Columns and labels:
[1] = Tolerability of SDG given twice daily for 7 days; format: in vivo; conditions: 100 mg/Kg given twice daily for 7 days
[2] = test system: human epithelial cells; assay: BaP-induced genotoxic stress (p53 protein levels); format: cell-based; conditions: SDG 5, 10, 25 and 50 μM
Text: Similarly, SDG prevents genotoxic stress in human epithelial cells exposed to BaP. Exposure of cells to a potent carcinogen such as BaP, induces genotoxic stress as indicated by increased levels of p53 protein (FIG. 25). […] SDG also prevents oxidative DNA damages in human epithelial cells exposed to BaP. Exposure of cells to a potent carcinogen such as BaP, induces oxidative DNA damage as indicated by increased levels of gamma-H2AX, a marker for double-stranded DNA breaks (FIG. 26). […] Furthermore, SDG prevents DNA adduct formation in human epithelial cells exposed to BaP. Exposure of cells to a potent carcinogen such as BaP, induces the formation of DNA adducts (FIG. 27). DNA adducts are pieces of DNA covalently linked to a carcinogen and is directly linked to the development of malignancy. The DNA adduct levels is decreased by the presence of SDG or its metabolites ED and EL given alone or in combination.

[3] = test system: AOE gene expression (HO-1, NQO1, GST); assay: AOE gene expression in lung in the pharmacokinetic study; format: in vivo, mouse; conditions: 100 mg SDG/Kg oral; p<0.05
Protocol: After selecting the 100 mg/kg dose as a dose that induces significant AOE expression while allowing for SDG to be detected in circulation, a pharmacokinetic study was performed to determine bioavailability and biological effects in target tissues (i.e., lung). Blood samples as well as tissues (lung, brain, liver, kidneys, spleen) were collected at 15 min, 30 min, and 1, 2, 4, 6, 8, 12 hours. SDG levels were determined as above in plasma and lung (FIGS. 41A-C). A single dose of 100 mg SDG/Kg was well absorbed and intact SDG was detectable in the circulation up to 6 hours post administration (FIG. 41A) and in flushed, blood-free lung tissues for 4 hours (FIG. 41B). […] The observed gene expression increase correlated with an increase in protein levels determined by western blotting (not shown). […] The use of SDG in human therapy is thus greatly facilitated and the toxicity risk is unlikely. Therefore a dose of 50-100 mg/Kg (1 or 2 mg SDG per day) is sufficient to induce the anticipated protective effects in target tissues and can be used for further study.

[4] = test system: calf thymus DNA; assay: Radiation-induced calf thymus DNA fragmentation assay; format: biochemical; conditions: 50 Gy
Protocol: Plasmid DNA (pBR322) or calf thymus DNA samples with or without varying concentrations of SDG (R,R), SDG (S,S) and SDG (commercial) were exposed to γ-radiation with a Mark 1 cesium (Cs-137) irradiator (J. L. Shepherd, San Fernando, Calif.) at a dose rate of 1.7 Gy/min in phosphate buffered saline, pH 7.4 (PBS).
The effect of test compounds on radiation-induced strand breaks in DNA was determined using calf thymus DNA (Sigma, St. Louis, Mo.). DNA (500 ng) in PBS (pH 7.4) was mixed with varying concentrations (25-250 μM) of SDG (R,R), SDG (S,S) and SDG (commercial) and irradiated at 50 Gy for 30 min. A second series of experiments were performed at varying concentrations ranging from 0.5-10 μM. Samples were mixed with loading dye and subjected to agarose (1%) gel electrophoresis in TAE buffer (pH, 8.3) at 100 V. The gel was stained with ethidium bromide (0.5 μg/ml) for 40 min, washed for 20 min and then visualized on a UV trans-illuminator (Bio-Rad, Hercules, Calif.). The captured gel images were scanned and the density of the calf thymus DNA fragments was determined by Gel-Pro image analyzer program (Media Cybernetics, Silver Spring, Md.). The density of the low mol. wt (<6,000 bps) and the high mol. wt (>6,000 bps) fragments of calf thymus DNA was expressed as % of the total density (low mol wt.+high mol. wt.).

[5] = test system: Murine primary lung cells (epithelial cells); assay: qPCR of Bax and Bcl-2 gene expression after irradiation; format: cell-based, mouse; conditions: for Bcl-2 mRNA levels, increase: SDG pre-treated cells
Protocol: qPCR was performed using TaqMan® Probe-Based Gene Expression Assays supplied by Applied Biosystems, Life Technologies (Carlsbad, Calif.). To evaluate the effect of SDG treatment on the mRNA expression of apoptotic genes, individual TaqMan® gene expression assays were performed for Bax (Mm00432051_m1) and Bcl-2 (Mm00477631_m1).
Briefly, cells were pre-treated with SDG (50 μM, 6 hrs) and irradiated (2 Gy). Total RNA was isolated from using RNeasy Plus Mini Kit (Qiagen, Valencia, Calif.) and quantified using a NanoDrop 2000 (ThermoFisher Scientific, Waltham, Mass.). Reverse transcription of RNA to cDNA was then performed on a Veriti® Thermal Cycler using the High Capacity RNA to cDNA kit supplied by Applied Biosystems, Life Technologies (Carlsbad, Calif.). qPCR was performed using 25 ng of cDNA per reaction well on a StepOnePlus™ Real-Time PCR System (Applied Biosystems, Life Technologies, Carlsbad, Calif.). Gene expression data was normalized to 18S ribosomal RNA and calibrated to untreated control samples according to the ΔΔCT method.

[6] = typical range, earlier work; read-out: EC50 values for free radical scavenging and antioxidant effects; cited from earlier work
[7] = test system: murine primary lung cells (epithelial cells, endothelial cells and fibroblasts); assay: Clonogenic survival of irradiated primary lung cells; format: cell-based, mouse
Protocol: Fibroblasts and endothelial cells were isolated from C57/bl6 mouse. For fibroblast isolation, mouse lungs were harvested, minced, and incubated with dispase (2 mg/ml) for 45 minutes. Pieces were plated out and fibroblasts were cultured as described previously and used between passages 3 and 10. Pulmonary microvascular endothelial cells (PMVEC) were isolated from murine lungs as described previously. Briefly, freshly harvested mouse lungs were treated with collagenase followed by isolation of cells by adherence to magnetic beads coated with mAb to platelet endothelial cell adhesion molecule (PECAM). Epithelial cells (C10) cells were originally derived from a normal BALB/c mouse lung explant and are non-tumorigenic, contact-inhibited, and have alveolar type 2 cell features at early passage.
Exponentially growing cells were plated as single cells and incubated overnight. Cells were treated with various doses of the lignan SDG (10-50 μM) 6 h prior to irradiation (2, 4, 6 and 8 Gy). Lignan dose was selected based on animal studies to be within the physiological levels reached in the blood circulation when 10% Flaxseed is ingested. Cells were irradiated with a Mark 1 cesium (Cs-137) irradiator (J. L. Shepherd, San Fernando, Calif.) at a dose rate of 1.7 Gy/min Colonies were stained and counted 10 to 15 days after irradiation and surviving fraction was calculated.

## COc1cc(C[C@@H](CO[C@@H]2O[C@H](CO)[C@@H](O)[C@H](O)[C@H]2O)[C@H](CO[C@@H]2O[C@H](CO)[C@@H](O)[C@H](O)[C@H]2O)Cc2ccc(O)c(OC)c2)ccc1O [SDG, secoisolariciresinol diglucoside]
[1]
  Intolerance / toxicity: neither intolerance nor toxicity
[2]
  p53 protein levels (genotoxic stress): mitigated dose-dependently
[3]
  AOE gene expression levels (HO-1, NQO1, GST) over baseline: significantly elevated
[4]
  Concentration at which maximum radioprotection of genomic DNA is achieved: approximately 5.0 μM
[4]; 10 μM of each agent
  Radioprotective properties of SDG and metabolites compared: equipotent
[5]; SDG 50 μM pre-treatment, 2 Gy, 24 and 48 hours post-IR
  IR-induced increase in pro-apoptotic Bax mRNA levels: significantly (p<0.05) inhibited
[5]; 24 hours post-IR
  Bcl-2 mRNA levels, increase: 6.6 fold
[5]; 48 hours post-IR
  Bcl-2 mRNA levels, increase: 3.5 fold
[6]
  EC50: 130 to 200 µM
[7]; SDG 10-50 μM alone, all three cell types, vs untreated control
  Colony forming ability, compound alone: did not elicit any adverse effect
[7]; SDG prior to irradiation, epithelial and endothelial cells (FIGS. 7A, 7B)
  Surviving fraction: enhanced significantly
[7]; fibroblasts, 6 h pre-treatment
  SDG concentration giving maximum protection against radiation-induced loss in clonogenicity: 50 µM
